{
  "source": "ChEMBL document CHEMBL1131037",
  "about": "“Structure-based design, synthesis, and biological evaluation of irreversible human rhinovirus 3C protease inhibitors. 2. Peptide structure-activity studies” (J Med Chem, 1998)",
  "data": [
    {"test_system": "rhinovirus B14", "assay": "Antiviral activity against HRV-14 in cell culture", "type": "functional, organism-based", "conditions": "Rhinovirus B", "units": {"EC50": "µM"}, "values": [
      {"compound": "CCOC(=O)/C=C/[C@H](CCC(N)=O)NC(=O)[C@H](Cc1ccccc1)NC(=O)[C@H](CC(C)C)NC(=O)SC", "EC50": 1.1},
      {"compound": "CCOC(=O)/C=C/[C@H](CCC(N)=O)NC(=O)[C@H](Cc1ccccc1)NC(=O)[C@H](CC(C)C)NC(=O)C(C)(C)C", "EC50": 1.8},
      {"compound": "CCOC(=O)/C=C/[C@H](CCC(N)=O)NC(=O)[C@H](Cc1ccc(OP(=O)(O)O)cc1)NC(=O)[C@H](CC(C)C)NC(=O)OCc1ccccc1", "EC50": 14},
      {"compound": "CCOC(=O)/C=C/[C@H](CCC(N)=O)NC(=O)[C@H](Cc1ccccc1)NC(=O)[C@H](CCN1CCOCC1)NC(=O)OCc1ccccc1", "EC50": 5.1},
      {"compound": "CCOC(=O)/C=C/[C@H](CCC(N)=O)NC(=O)[C@H](Cc1ccccc1)NC(=O)[C@H](CC(=O)N(C)C)NC(=O)OCc1ccccc1", "EC50": 5.9},
      {"compound": "CCOC(=O)/C=C/[C@H](COC(N)=O)NC(=O)[C@H](Cc1ccccc1)NC(=O)[C@H](CC(C)C)NC(=O)OCc1ccccc1", "EC50": 1.6},
      {"compound": "CCOC(=O)/C=C/[C@H](CCC(N)=O)NC(=O)[C@H](Cc1ccccc1)NC(=O)[C@H](CC(C)C)NC(=O)OC1CCCCC1", "EC50": 7.6},
      {"compound": "CCOC(=O)/C=C/[C@H](CCC(N)=O)NC(=O)[C@H](Cc1ccccc1)NC(=O)[C@H](CSCc1ccccc1)NC(=O)OCc1ccccc1", "EC50": 0.2},
      {"compound": "CCOC(=O)/C=C/[C@H](CCC(N)=O)NC(=O)[C@H](Cc1ccc(C(N)=O)cc1)NC(=O)[C@H](CC(C)C)NC(=O)OCc1ccccc1", "EC50": "> 177"},
      {"compound": "CCOC(=O)/C=C/[C@H](CCC(N)=O)NC(=O)[C@H](CCC(=O)O)NC(=O)[C@H](CC(C)C)NC(=O)OCc1ccccc1", "EC50": "> 320"},
      {"compound": "CCOC(=O)/C=C/[C@H](CNC(C)=O)NC(=O)[C@H](Cc1ccccc1)NC(=O)[C@H](CC(C)C)NC(=O)OCc1ccccc1", "EC50": 2.2},
      {"compound": "CCOC(=O)/C=C/[C@H](CCC(N)=O)NC(=O)[C@H](Cc1ccc(C#N)cc1)NC(=O)[C@H](CC(C)C)NC(=O)OCc1ccccc1", "EC50": 5.6}
    ]},
    {"target": "T1, Human rhinovirus A protease (Human rhinovirus sp.) (UniProt Q4U254)", "T1 sequence (whole entry)": "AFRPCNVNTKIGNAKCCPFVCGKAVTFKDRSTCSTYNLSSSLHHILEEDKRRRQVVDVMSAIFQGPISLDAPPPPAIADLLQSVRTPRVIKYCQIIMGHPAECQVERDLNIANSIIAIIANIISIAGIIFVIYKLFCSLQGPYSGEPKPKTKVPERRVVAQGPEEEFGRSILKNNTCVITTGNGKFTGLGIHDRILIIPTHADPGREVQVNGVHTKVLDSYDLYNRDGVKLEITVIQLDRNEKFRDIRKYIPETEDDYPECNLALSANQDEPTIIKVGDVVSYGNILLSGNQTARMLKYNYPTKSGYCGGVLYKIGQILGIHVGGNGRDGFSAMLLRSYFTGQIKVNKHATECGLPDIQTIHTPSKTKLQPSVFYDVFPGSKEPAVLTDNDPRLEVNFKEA", "assay": "Binding affinity on human Rhinovirus 3C protease (rhinovirus serotype 14)", "conditions": "not given", "units": {"K obs / 1": "M⁻¹ s⁻¹"}, "values": [
      {"compound": "CCOC(=O)/C=C/[C@H](CCC(N)=O)NC(=O)[C@H](Cc1ccccc1)NC(=O)[C@H](CC(C)C)NC(=O)SC", "K obs / 1": 69800},
      {"compound": "CCOC(=O)/C=C/[C@H](CCC(N)=O)NC(=O)[C@H](Cc1ccccc1)NC(=O)[C@H](CC(C)C)NC(=O)C(C)(C)C", "K obs / 1": 8200},
      {"compound": "CCOC(=O)/C=C/[C@H](CCC(N)=O)NC(=O)[C@H](Cc1ccc(OP(=O)(O)O)cc1)NC(=O)[C@H](CC(C)C)NC(=O)OCc1ccccc1", "K obs / 1": 1200},
      {"compound": "CCOC(=O)/C=C/[C@H](CCC(N)=O)NC(=O)[C@H](Cc1ccccc1)NC(=O)[C@H](CCN1CCOCC1)NC(=O)OCc1ccccc1", "K obs / 1": 35000},
      {"compound": "CCOC(=O)/C=C/[C@H](CCC(N)=O)NC(=O)[C@H](Cc1ccccc1)NC(=O)[C@H](CC(=O)N(C)C)NC(=O)OCc1ccccc1", "K obs / 1": 22600},
      {"compound": "CCOC(=O)/C=C/[C@H](COC(N)=O)NC(=O)[C@H](Cc1ccccc1)NC(=O)[C@H](CC(C)C)NC(=O)OCc1ccccc1", "K obs / 1": 5600},
      {"compound": "CCOC(=O)/C=C/[C@H](CCC(N)=O)NC(=O)[C@H](Cc1ccccc1)NC(=O)[C@H](CC(C)C)NC(=O)OC1CCCCC1", "K obs / 1": 15500},
      {"compound": "CCOC(=O)/C=C/[C@H](CCC(N)=O)NC(=O)[C@H](Cc1ccccc1)NC(=O)[C@H](CSCc1ccccc1)NC(=O)OCc1ccccc1", "K obs / 1": 97000},
      {"compound": "CCOC(=O)/C=C/[C@H](CCC(N)=O)NC(=O)[C@H](Cc1ccc(C(N)=O)cc1)NC(=O)[C@H](CC(C)C)NC(=O)OCc1ccccc1", "K obs / 1": 9600},
      {"compound": "CCOC(=O)/C=C/[C@H](CCC(N)=O)NC(=O)[C@H](CCC(=O)O)NC(=O)[C@H](CC(C)C)NC(=O)OCc1ccccc1", "K obs / 1": 200},
      {"compound": "CCOC(=O)/C=C/[C@H](CNC(C)=O)NC(=O)[C@H](Cc1ccccc1)NC(=O)[C@H](CC(C)C)NC(=O)OCc1ccccc1", "K obs / 1": 800},
      {"compound": "CCOC(=O)/C=C/[C@H](CCC(N)=O)NC(=O)[C@H](Cc1ccc(C#N)cc1)NC(=O)[C@H](CC(C)C)NC(=O)OCc1ccccc1", "K obs / 1": 10800}
    ]},
    {"test_system": "rhinovirus B14", "assay": "Cytotoxic activity against HRV-14 in cell culture", "type": "functional, rhinovirus 14", "conditions": "Rhinovirus B", "units": {"CC50": "µM"}, "values": [
      {"compound": "CCOC(=O)/C=C/[C@H](CCC(N)=O)NC(=O)[C@H](Cc1ccccc1)NC(=O)[C@H](CC(C)C)NC(=O)SC", "CC50": "> 320"},
      {"compound": "CCOC(=O)/C=C/[C@H](CCC(N)=O)NC(=O)[C@H](Cc1ccccc1)NC(=O)[C@H](CC(C)C)NC(=O)C(C)(C)C", "CC50": "> 100"},
      {"compound": "CCOC(=O)/C=C/[C@H](CCC(N)=O)NC(=O)[C@H](Cc1ccc(OP(=O)(O)O)cc1)NC(=O)[C@H](CC(C)C)NC(=O)OCc1ccccc1", "CC50": "> 320"},
      {"compound": "CCOC(=O)/C=C/[C@H](CCC(N)=O)NC(=O)[C@H](Cc1ccccc1)NC(=O)[C@H](CCN1CCOCC1)NC(=O)OCc1ccccc1", "CC50": "> 100"},
      {"compound": "CCOC(=O)/C=C/[C@H](CCC(N)=O)NC(=O)[C@H](Cc1ccccc1)NC(=O)[C@H](CC(=O)N(C)C)NC(=O)OCc1ccccc1", "CC50": "> 320"},
      {"compound": "CCOC(=O)/C=C/[C@H](COC(N)=O)NC(=O)[C@H](Cc1ccccc1)NC(=O)[C@H](CC(C)C)NC(=O)OCc1ccccc1", "CC50": "> 320"},
      {"compound": "CCOC(=O)/C=C/[C@H](CCC(N)=O)NC(=O)[C@H](Cc1ccccc1)NC(=O)[C@H](CC(C)C)NC(=O)OC1CCCCC1", "CC50": "> 100"},
      {"compound": "CCOC(=O)/C=C/[C@H](CCC(N)=O)NC(=O)[C@H](Cc1ccccc1)NC(=O)[C@H](CSCc1ccccc1)NC(=O)OCc1ccccc1", "CC50": "> 100"},
      {"compound": "CCOC(=O)/C=C/[C@H](CCC(N)=O)NC(=O)[C@H](Cc1ccc(C(N)=O)cc1)NC(=O)[C@H](CC(C)C)NC(=O)OCc1ccccc1", "CC50": 177},
      {"compound": "CCOC(=O)/C=C/[C@H](CCC(N)=O)NC(=O)[C@H](CCC(=O)O)NC(=O)[C@H](CC(C)C)NC(=O)OCc1ccccc1", "CC50": "> 320"},
      {"compound": "CCOC(=O)/C=C/[C@H](CNC(C)=O)NC(=O)[C@H](Cc1ccccc1)NC(=O)[C@H](CC(C)C)NC(=O)OCc1ccccc1", "CC50": "> 320"},
      {"compound": "CCOC(=O)/C=C/[C@H](CCC(N)=O)NC(=O)[C@H](Cc1ccc(C#N)cc1)NC(=O)[C@H](CC(C)C)NC(=O)OCc1ccccc1", "CC50": "> 320"}
    ]}
  ]
}
